Laboratory results: EP2062885A1, “Acid addition salts of imatinib and formulations comprising the same” (priority 2007, dated 2009)
Structures can show the parent of a compound that is named as a salt. Where two headings read alike, the source gives them in different places.

How the values were obtained:
[1] = Non-hygroscopicity test (stability chambers, water content by Karl Fischer method); assay type: physicochemical; conditions: for Final Moisture Content After 24hrs / Initial Moisture Content: Karl Fischer; for hygroscopic properties: assessment in words, comparable to α and β forms of imatinib mesylate; for Initial Moisture Content: before storage in stability chamber
Protocol: The water contents were measured by a well known method, namely Karl Fischer method for determining water quantities.

Rat = conditions: cited from earlier work
Mouse = conditions: cited from earlier work
Quail = conditions: Oral; cited from earlier work
Rabbit = conditions: cited from earlier work

Cc1ccc(NC(=O)c2ccc(CN3CCN(C)CC3)cc2)cc1Nc1nccc(-c2cccnc2)n1 [Imatinib Oxalate, 4-[(4-Methyl-1-piperazinyl)methyl]-N-[4-methyl-3-[[4-(3-pyridinyl) -2-pyrimidinyl]amino]phenyl]-benzamide, oxalate]
Final Moisture Content After 24hrs ([1]; 25°C at humidity of 60%): 3.4% | Final Moisture Content After 24hrs ([1]; 40 °C at humidity of 75%): 3.6% | hygroscopic properties [1]: considerably low hygroscopic | Initial Moisture Content [1]: 1.6%

CCCCCCCCCCCC(=O)O [Lauric acid]
LD50 (Rat; Oral, Rat): 12000 mg/kg | LD50 (Mouse; mouse, in vivo, iv): 131 mg/kg

CCCCCCCC/C=C\CCCCCCCC(=O)O [Oleic acid]
LD50 (Rat; Oral, Rat): 74000 mg/kg | LD50 (Mouse; Intraperitoneal, Mouse): 282 mg/kg | LD50 (Mouse; Intravenous, Mouse): 230 mg/kg

CS(=O)(=O)O [Methanesulfonic acid, reference compound]
LD50 (Quail): 1000 mg/kg | LD50 (Rat; rat, in vivo, po): 200 mg/kg

Cc1ccc(NC(=O)c2ccc(CN3CCN(C)CC3)cc2)cc1Nc1nccc(-c2cccnc2)n1.O=C(O)c1cc(=O)[nH]c(=O)[nH]1 [Imatinib Orotate, 4-[(4-Methyl-1-piperazinyl)methyl]-N-[4-methyl-3-[[4-(3-pyridinyl)-2-pyrimidinyl]amino]phenyl]-benzamide, orotate]
Final Moisture Content After 24hrs ([1]; 25°C at humidity of 60%): 0.7% | Final Moisture Content After 24hrs ([1]; 40 °C at humidity of 75%): 0.7% | hygroscopic properties [1]: considerably low hygroscopic | Initial Moisture Content [1]: 0.4%

CCCCCCCCCC(=O)O [Capric acid]
LD50 (Rat; Oral, Rat): 3730 mg/kg | LD50 (Rabbit; Oral): 1770 mg/kg

CC1(C)C2CCC1(CS(=O)(=O)O)C(=O)C2 (stereo not drawn) [Camphor sulfonic acid]
LD50 (Mouse; Subcutaneous, Mouse): 2502 mg/kg

N[C@@H](CC(=O)O)C(=O)O [Aspartic acid]
LD50 (Rat; Oral, Rat): 5000 mg/kg | LD50 (Rabbit; Skin): 5000 mg/kg

O=C(O)c1cc(=O)[nH]c(=O)[nH]1 [Orotic acid]
LD50 (Mouse; mouse, in vivo, ip): 841 mg/kg | LD50 (Mouse; mouse, in vivo, iv): 770 mg/kg | LD50 (Mouse; mouse, in vivo, po): 2000 mg/kg

O=C(O)Cc1ccccc1 [Phenyl acetic acid]
LD50 (Rat; Intraperitoneal, Rat): 1600 mg/kg | LD50 (Rat; Oral, Rat): 2250 mg/kg

Cc1ccc(S(=O)(=O)O)cc1 [p-Toluene sulfonic acid]
LD50 (Rat; Oral, Rat): 2480 mg/kg | LD50 (Mouse; Oral, Mouse): 400 mg/kg
